# Reference: patent publication US20260240820A1, “METHOD FOR CONTROLLING MEMBRANE POTENTIAL-DEPENDENT ION CHANNEL THROUGH TYPE I TASTE RECEPTORS (T1RS)” (ION CHAT RESEARCH CORPORATE, priority 2022, published 2026)
# Where “and” joins values, the source holds several entries; their conditions need not be identical. Equal entries are not always repeated. Entries after “also recorded” stand apart in the source; their conditions may differ. Where two headings read alike, the source gives them in different places.
# What was measured:
# VGSC = assay: Patch-clamp recording of VGSC current, cell type not specified or several cell types (summary statements); format: cell-based, human; conditions: for IC50: read-out: IC50 for inhibition of VGSC; for Enhancement of VGSC current at high(er) concentration: high concentration (desensitization)
# Nav1.5 = assay: Patch-clamp (voltage clamp) recording of VGSC current in HEK cells stably expressing Nav1.5; conditions: for IC50: read-out: IC50 (VGSC inhibition)
# SH-SY5Y cells [1] = assay: Cell morphology observation, SH-SY5Y cells; format: cell-based, human; conditions: 120 μM; undifferentiated SH-SY5Y cells
# Nav1.6 [2] = assay: Patch-clamp recording of VGSC current in HEK (Nav1.6) cells; format: cell-based, human; conditions: HEK Nav1.6, prepulse −80 mV; read-out: IC50 (VGSC inhibition)
# [3] = test system: endogenous T1R GPCR of HEK cells; assay: Intracellular calcium (Cal-520) in HEK cells stably expressing Nav1.1 with endogenous T1R GPCR; format: cell-based, human; conditions: 10 nM then 20 nM for Aβ1-40 and Aβ1-42
# Procedure: Specifically, experiments were conducted as follows using HEK cells stably expressing Nav1.1 (FIG. 45). The calcium-sensitive reagent (Cal-520, AAT Bioquest) was incubated at 37° C. for 60 minutes, followed by incubation at room temperature for 30 minutes, and then changes in intracellular calcium were measured using a fluorescence microscope. […] Initially, 10 nM, followed by 20 nM of Aβ1-40 was applied after 5 minutes (arrow). […] A total of 6 cell groups from two independent experiments were measured, averaged by the maximum fluorescence response value, and the mean and standard error (stderr) were calculated and plotted. […] 10 nM, followed by 20 nM of Aβ1-42 was applied after 5 minutes (arrow). […] A total of 12 cell groups from two independent experiments were measured, averaged by the minimum fluorescence response value, and the mean and standard error (stderr) were calculated and plotted. Similar to the experimental results using the patch-clamp method when Aβ peptide was applied to Nav1.5, it was confirmed from intracellular calcium measurements that the effects of Aβ1-40 and Aβ1-42 were different.
# Nav1.6 [4] = assay: Patch-clamp recording of VGSC current in HEK (Nav1.6) cells; format: cell-based, human
# Excerpt: The cells used in the previous (18-1) experiment were cardiac-type VGSC cells. In this experiment, HEK (Nav1.1) and HEK (Nav1.6) cells, which are considered neuronal VGSC cells, were created. The effects of four peptides—Aβ25-35, Aβ1-38, Aβ1-40, and Aβ1-42—were examined using the same experimental protocol as in (18-1). […]
# Nav1.1 = assay: Patch-clamp recording of VGSC current in HEK (Nav1.1) cells; format: cell-based, human
# Excerpt: The cells used in the previous (18-1) experiment were cardiac-type VGSC cells. In this experiment, HEK (Nav1.1) and HEK (Nav1.6) cells, which are considered neuronal VGSC cells, were created. The effects of four peptides—Aβ25-35, Aβ1-38, Aβ1-40, and Aβ1-42—were examined using the same experimental protocol as in (18-1).
# [5] = test system: Nav1.5 in T1R3-silenced HEK cells; assay: VGSC current in HEK Nav1.5 cells with silenced T1R3; format: cell-based, human
# Excerpt: The miRNAs Oligo (Thermofisher) used for silencing were annealed to form double-stranded DNA, which was then linked to the miR RNAi Expression Vector using T4 DNA ligase to create the knockdown vector. Specifically, the procedure followed the miR RNAi Expression Vector Kit manual (BLOCK-i™ Pol II miR RNAi Expression Vector Kit with EmGFP (Catalog number: K493600)).
# Since Aβ25-35 peptide produced similar effects (enhancing VGSC activity, lowering the excitability threshold) as glutamine, it was considered that Aβ25-35 peptide might also act on T1R2/T1R3 receptors like glutamine. Therefore, in this implementation example, we used HEK-Nav1.5 cells with silenced T1R3 and compared the effect of Aβ25-35 peptide on VGSC with that in control HEK-Nav1.5 cells.
# To strengthen these findings, we conducted similar experiments using HEK Nav1.5 cells in which T1R3 expression was silenced (FIG. 22). We measured VGSC currents in T1R3-silenced HEK Nav1.5 cells, applying stimuli every 8 seconds.
# [6] = test system: VGSC of SH-SY5Y cells (Nav1.7, Nav1.2, Nav1.3); assay: Patch-clamp recording of VGSC current in differentiated SH-SY5Y cells; format: cell-based, human; conditions: 1-6 μM (2 μM in FIG. 4); listed as Aβ25-35 peptide
# Excerpt: Furthermore, the inventors focused on the relationship between taste receptors, particularly the sweet or umami receptors containing the T1R3 subunit, which are widely expressed in the brain and nervous system, including the hippocampus and cortex. They used human neuroblastoma cells (SH-SY5Y) that functionally express Nav1.2, Nav1.3, and Nav1.7 (as reported in non-patent literature 8), as well as HEK cells stably expressing Nav1.5 (with endogenous expression of T1R1, T1R2, and T1R3). They observed the effects of taste stimuli on sodium channel activation. By reducing the expression of T1R1 and T1R3 genes using silencing vectors, they confirmed that the effects on sodium channel currents induced by taste stimuli act through taste receptor GPCRs.
# The SH-SY5Y cell culture medium was prepared by mixing DMEM (Sigma-Aldrich) and F-12 (Sigma-Aldrich) in equal proportions. To induce neuronal-like differentiation, the medium contained 1% FBS (BioWest), 5% 40 mM L-Glutamine (Fuji Film), and 1% MEM non-essential amino acids (Wako Pure Chemical Industries). During differentiation, SH-SY5Y cells were cultured for at least 5 days with the addition of 10 μM/ml retinoic acid (Fuji Film). In this document, “SH-SY5Y cells” refer to the SH-SY5Y cell line differentiated into neuronal-like cells.
# SH-SY5Y cells [7] = assay: Action potentials of differentiated SH-SY5Y cells (current clamp, NanoCharge method); format: cell-based, human; conditions: listed as Aβ25-35 peptide
# Procedure: Next, using the current-clamp mode, we applied current stimulation and recorded action potentials from differentiated SH-SY5Y cells (FIG. 5, from the lower to the upper part of the figure, rectangular wave current stimulation was applied. The current strengths were 6, 8, 10, and 12 pA from the bottom). Before the application of Aβ25-35 peptide, action potentials were not induced at stimulation currents of 6 pA and 8 pA, but action potentials were recorded at stronger stimulation currents (10 pA and 12 pA).
# By using magnetic conductive nanoparticles as intracellular electrodes for measuring the neuronal action potentials of differentiated SH-SY5Y cells, and combining this with a capacitive potential detection device to measure changes in intracellular potentials, the spontaneous action potentials of these cells were measured. Specifically, 6.25 nM of the T1R3 agonist Aβ25-35 peptide was added to 400 μl of SH-SY5Y cell culture medium, and the spontaneous action potentials before and after the addition of Aβ25-35 peptide were measured to observe the changes.
# This membrane potential recording method focuses on the magnetic conductive nanoparticles penetrating the cell membrane, the cover glass on which the cells are seeded, and the electrode placed below the cover glass forming a capacitor. The charge (Q) charged to this capacitor is recorded as the membrane potential in terms of charge rather than voltage changes. Since the charge (Q) is obtained from Q=CV, where C is the capacitance and V is the potential, the charge changes measured here are influenced by the capacitor (C) (FIG. 43).
# HEK Nav1.5 cells = assay: GFP-Tubulin / GFP-Actin cytoskeleton observation in HEK Nav1.5 cells; format: cell-based, human; conditions: MSG 5 mM
# Excerpt: To observe the impact of cinacalcet and Aβ1-42 peptide on microfilament (actin) fiber structures, we labeled cells with GFP-Actin (FIG. 34). […] This experimental approach, using GFP-Tubulin, GFP-Actin, or other fluorescent proteins to label microtubules and microfilaments, can be used to screen compounds that regulate the activity of ion channels and neuronal function-controlling proteins. Additionally, simultaneous labeling of tubulin and actin can be achieved using fluorescent antibodies or phalloidin after cell fixation.
substance,measurement,setting,value
Aspartame,Effects on VGSCs,VGSC,Inhibition of VGSCs
same,Inhibition of VGSC,VGSC; 50 μM,> 90%. Inhibition is due to a parallel shift
same,IC50,VGSC; listed as aspartame,15 to 17 µM and < 17 µM
same,IC50,VGSC,< 50 µM
same,IC50,Nav1.5; prepulse −70 mV,15.3 µM
same,IC50,Nav1.5; prepulse −100 mV,49.7 µM
same,Change in cell morphology,SH-SY5Y cells [1],contracted cell morphology; also recorded: cell contraction
same,IC50,Nav1.6 [2],17 µM
"Aβ1-38: amyloid β peptide (Peptide Institute), Sequence No. 2",Change in intracellular calcium,[3],an increase in intracellular calcium was observed
same,Effect on VGSC current,Nav1.6 [4],VGSC enhancement
same,Effect on VGSC current,Nav1.1,VGSC enhancement
same,Effect on VGSC in T1R3-silenced cells,[5],is lost
same,Effect on VGSC inactivation,Nav1.5,delayed inactivation effect
same,Shift of steady-state inactivation (S-S) curve of VGSC,Nav1.5,shifted to the right; also recorded: shifting to the depolarizing side
same,VGSC current from prepulse/holding potential −80 mV,Nav1.5,enhancing currents; also recorded: significantly amplified
same,VGSC current from prepulse/holding potential −120 mV,Nav1.5,decreased; also recorded: slightly decreased
GSNKGAIIGLM [Aβ25-35],Change in intracellular calcium,[3],an increase in intracellular calcium was observed
same,Effect on VGSC inward current,[6],enhancement of transient downward VGSC current; also recorded: enhancement of VGSC inward current
same,Effect on VGSC current,Nav1.6 [4],VGSC enhancement
same,Effect on VGSC current,Nav1.1,VGSC enhancement
same,Effect on VGSC in T1R3-silenced cells,[5],is lost
same,Change in VGSC,[5]; 2 μM,no change in VGSC was observed
same,Effect on VGSC in T1R3-silenced cells,[5]; listed as ab25-35,T1R3 silencing nullifies ab25-35's
same,Effects on VGSCs,VGSC,Enhancement of VGSC
same,Effect on VGSC current in the presence of colchicine,"VGSC; 12.5 nM, colchicine 2.25 μM",inhibits Aβ25-35-induced enhancement; also recorded: no further enhancement of VGSC current was observed
same,Effect on VGSC current,VGSC; 125 nM to 2 μM,Ab25-35 (125 nM to 2 μM) enhances
same,Effect on VGSC current in the presence of Latrunculin A,"VGSC; 12.6 μM LatA, Aβ25-35 printed 12.5 μM",VGSC amplification; also recorded: doubled
same,Enhancement of VGSC current at high(er) concentration,VGSC,VGSC current but not at higher
same,Enhancement of VGSC current at high(er) concentration,VGSC; listed as Ab25-35,Ab25-35 is suppressed
same,Cell membrane capacitance and VGSC current,"Nav1.5; 12.5 nM, perforated patch-clamp",increase in cell membrane capacitance and VGSC current
same,Cell membrane capacitance and VGSC currents,"Nav1.5; 120 nM, perforated patch-clamp",increased
same,Cell membrane capacitance and VGSC currents,"Nav1.5; 240 nM, perforated patch-clamp",decreased to control levels
same,Effect on VGSC current,"Nav1.5; 1 μM, control HEK Nav1.5 cells",enhancing effect; also recorded: enhancement effect
same,Increase in VGSC current amplitude,Nav1.5; control without anti-T1R3 antibody pre-treatment,10-20%
same,VGSC current density (pA/pF),"Nav1.5; low concentration, perforated patch-clamp",current density of VGSC increased
same,Frequency of spontaneous action potentials,"SH-SY5Y cells [7]; 6.25 nM, NanoCharge method",an increase in spontaneous action potential frequency; also recorded: an increase in the frequency of spontaneous action potentials
same,Excitability / action potential threshold,"SH-SY5Y cells [7]; current clamp, 6-12 pA stimulation",increased the excitability of SH-SY5Y cells; also recorded: threshold for generating action potentials was lowered
same,Microtubule fibrous structure (GFP-Tubulin),HEK Nav1.5 cells,disappearance of microtubule-like structures
